Bridge positions count the residues as written; N and C are the ends. Peptide text beside a SMILES is read from it.

The record followed here is PMC9833666, “Designing and identifying β-hairpin peptide macrocycles with antibiotic potential” (Science Advances, 2023).

The assay concerns Escherichia coli W3110. It counts as cell-based. Particulars: for Ec W3110 MIC MH: E. coli W3110, MH medium; for Ec W3110 MIC RPMI: E. coli W3110, RPMI medium.

With `CC[C@H](C)[C@@H]1NC(=O)[C@H](CCCNC(=N)N)NC(=O)[C@H](C(C)C)NC(=O)[C@H](CCCNC(=N)N)NC(=O)[C@H](CCCNC(=N)N)NC(=O)[C@H](CCCNC(=N)N)NC(=O)[C@H](CCCNC(=N)N)NC(=O)[C@H](CC(N)=O)NC(=O)[C@H](CC(N)=O)NC(=O)[C@H](C(C)C)NC(=O)[C@H](CCCNC(=N)N)NC(=O)[C@H](C(C)C)NC(=O)[C@H]([C@@H](C)O)NC(=O)[C@H](C(C)C)NC(=O)[C@@H](N)CSSC[C@@H](C(=O)O)NC(=O)[C@H](C(C)C)NC(=O)[C@H](CCC(N)=O)NC(=O)[C@H](C(C)C)NC(=O)[C@H](CO)NC1=O` [SySA-11] (H-CVTVRVNNRRRRVRISVQVC-OH; disulfide 1-20; N-terminus and C-terminus assumed), the Ec W3110 MIC MH came out at 64 µg/mL, the Ec W3110 MIC RPMI stood at 16 µg/mL, the “W3110 MIC MH” value amounted to 64 µg/mL and the “W3110 MIC RPMI” value turned out to be 16 µg/mL.
In the case of `CC(C)C[C@@H]1NC(=O)[C@H](CCCNC(=N)N)NC(=O)[C@H](CCCNC(=N)N)NC(=O)[C@H](CCCNC(=N)N)NC(=O)[C@H](CCCNC(=N)N)NC(=O)[C@H](CC(N)=O)NC(=O)[C@H](CC(N)=O)NC(=O)[C@H](CC(C)C)NC(=O)[C@H](CCCNC(=N)N)NC(=O)[C@H](C(C)C)NC(=O)[C@H](CCCNC(=N)N)NC(=O)[C@H](C(C)C)NC(=O)[C@@H](N)CSSC[C@@H](C(=O)O)NC(=O)[C@H](C(C)C)NC(=O)[C@H](CCC(=O)O)NC(=O)[C@H](CC(C)C)NC(=O)[C@H](CO)NC(=O)[C@H](C(C)C)NC(=O)[C@H](CCCCN)NC1=O` [SySA-16] (H-CVRVRLNNRRRRLKVSLEVC-OH; disulfide 1-20; N-terminus and C-terminus assumed), the Ec W3110 MIC MH turned out to be 32 µg/mL, the Ec W3110 MIC RPMI came out at 32 µg/mL, the “W3110 MIC MH” value amounted to 32 µg/mL and the “W3110 MIC RPMI” value was determined as 32 µg/mL.
Regarding `CC(C)C[C@@H]1NC(=O)CNC(=O)[C@H](CCCNC(=N)N)NC(=O)[C@H](CCCNC(=N)N)NC(=O)[C@H](CCCNC(=N)N)NC(=O)[C@H](CC(N)=O)NC(=O)[C@H](CC(N)=O)NC(=O)[C@H](CC(C)C)NC(=O)[C@H](CCCNC(=N)N)NC(=O)[C@H](C(C)C)NC(=O)[C@H](CCCNC(=N)N)NC(=O)[C@H](CC(C)C)NC(=O)[C@@H](N)CSSC[C@@H](C(=O)O)NC(=O)[C@H](C(C)C)NC(=O)[C@H](CCC(N)=O)NC(=O)[C@H](C(C)C)NC(=O)[C@H](CO)NC(=O)[C@H](C(C)C)NC(=O)[C@H](CCCCN)NC1=O` [SySA-17] (H-CLRVRLNNRRRGLKVSVQVC-OH; disulfide 1-20; N-terminus and C-terminus assumed), the Ec W3110 MIC MH came out at 64 µg/mL, the Ec W3110 MIC RPMI was 32 µg/mL, the “W3110 MIC MH” value is 64 µg/mL and the “W3110 MIC RPMI” value was 32 µg/mL.
As to `CC(C)C[C@@H]1NC(=O)[C@H](CCCNC(=N)N)NC(=O)[C@H](C(C)C)NC(=O)[C@H](CCCNC(=N)N)NC(=O)[C@H](CC(C)C)NC(=O)[C@@H](N)CSSC[C@@H](C(=O)O)NC(=O)[C@H](C(C)C)NC(=O)[C@H](CCC(N)=O)NC(=O)[C@H](C(C)C)NC(=O)[C@H](CO)NC(=O)[C@H](C(C)C)NC(=O)[C@H](CCCCN)NC(=O)[C@H](C(C)C)NC(=O)CNC(=O)[C@H](CCCNC(=N)N)NC(=O)[C@H](CCCNC(=N)N)NC(=O)[C@H](CCCNC(=N)N)NC(=O)[C@H](CC(N)=O)NC(=O)[C@H](CC(N)=O)NC1=O` [SySA-25] (H-CLRVRLNNRRRGVKVSVQVC-OH; disulfide 1-20; N-terminus and C-terminus assumed), the Ec W3110 MIC MH was found to be 64 µg/mL, the Ec W3110 MIC RPMI turned out to be 8 µg/mL, the “W3110 MIC MH” value is 64 µg/mL and the “W3110 MIC RPMI” value was 8 µg/mL.
Take `CC[C@H](C)[C@@H]1NC(=O)[C@H](CCCNC(=N)N)NC(=O)[C@H](CC(C)C)NC(=O)CNC(=O)CNC(=O)CNC(=O)[C@H](CCCNC(=N)N)NC(=O)[C@H](CC(N)=O)NC(=O)[C@H](CC(N)=O)NC(=O)[C@H](CC(C)C)NC(=O)[C@H](CCCNC(=N)N)NC(=O)[C@H](C(C)C)NC(=O)[C@H](CCCNC(=N)N)NC(=O)[C@H](C(C)C)NC(=O)[C@@H](N)CSSC[C@@H](C(=O)O)NC(=O)[C@H](C(C)C)NC(=O)[C@H](CCC(N)=O)NC(=O)[C@H](CC(C)C)NC(=O)[C@H]([C@@H](C)O)NC1=O` [SySA-27] (H-CVRVRLNNRGGGLRITLQVC-OH; disulfide 1-20; N-terminus and C-terminus assumed): the Ec W3110 MIC MH was determined as 256 µg/mL, the Ec W3110 MIC RPMI worked out at 64 µg/mL, the “W3110 MIC MH” value amounted to 256 µg/mL and the “W3110 MIC RPMI” value was 64 µg/mL.
For the compound `CC[C@H](C)[C@@H]1NC(=O)[C@H](CCCNC(=N)N)NC(=O)[C@H](CC(C)C)NC(=O)[C@@H](N)CSSC[C@@H](C(=O)O)NC(=O)[C@H](C(C)C)NC(=O)[C@H](CCC(N)=O)NC(=O)[C@H](CC(C)C)NC(=O)[C@H](CO)NC(=O)[C@H](C(C)C)NC(=O)[C@H](CCCCN)NC(=O)[C@H](CC(C)C)NC(=O)CNC(=O)[C@H](CCCNC(=N)N)NC(=O)[C@H](CCCNC(=N)N)NC(=O)[C@H](CCCNC(=N)N)NC(=O)[C@H](CC(N)=O)NC(=O)[C@H](CC(N)=O)NC(=O)[C@H](CC(C)C)NC(=O)[C@H](CCCNC(=N)N)NC1=O` [SySA-30] (H-CLRIRLNNRRRGLKVSLQVC-OH; disulfide 1-20; N-terminus and C-terminus assumed), the Ec W3110 MIC MH was determined as 64 µg/mL, the Ec W3110 MIC RPMI was 8 µg/mL, the “W3110 MIC MH” value was 64 µg/mL and the “W3110 MIC RPMI” value worked out at 8 µg/mL.
As to `CC[C@H](C)[C@@H]1NC(=O)[C@H](CC(N)=O)NC(=O)[C@H](C(C)C)NC(=O)[C@H](CCCCN)NC(=O)[C@H]([C@@H](C)CC)NC(=O)[C@H](CCCNC(=N)N)NC(=O)[C@@H](N)CSSC[C@@H](C(=O)O)NC(=O)[C@H](CCC(N)=O)NC(=O)[C@H](CC(C)C)NC(=O)[C@H](CCC(N)=O)NC(=O)[C@H](CC(C)C)NC(=O)[C@H](CCCCN)NC(=O)[C@H](C(C)C)NC(=O)[C@H](CCCNC(=N)N)NC(=O)[C@H](CCCNC(=N)N)NC(=O)[C@H](CCCNC(=N)N)NC(=O)CNC(=O)[C@H](CC(N)=O)NC(=O)[C@H](CC(N)=O)NC1=O` [SySA-34] (H-CRIKVNINNGRRRVKLQLQC-OH; disulfide 1-20; N-terminus and C-terminus assumed), the Ec W3110 MIC MH was determined as 128 µg/mL, the Ec W3110 MIC RPMI is 32 µg/mL, the “W3110 MIC MH” value amounted to 128 µg/mL and the “W3110 MIC RPMI” value was 32 µg/mL.
For the compound `CC[C@H](C)[C@@H]1NC(=O)[C@H](CCCNC(=N)N)NC(=O)[C@H](C(C)C)NC(=O)[C@@H](N)CSSC[C@@H](C(=O)O)NC(=O)[C@H](C(C)C)NC(=O)[C@H](CCC(=O)O)NC(=O)[C@H](CC(C)C)NC(=O)[C@H](CO)NC(=O)[C@H](C(C)C)NC(=O)[C@H](CCCCN)NC(=O)[C@H](C(C)C)NC(=O)[C@H](CCCNC(=N)N)NC(=O)[C@H](CCCNC(=N)N)NC(=O)[C@H](CCCNC(=N)N)NC(=O)[C@H](CCCNC(=N)N)NC(=O)[C@H](CC(N)=O)NC(=O)[C@H](CC(N)=O)NC(=O)[C@H](CC(C)C)NC(=O)[C@H](CCCNC(=N)N)NC1=O` [SySA-37] (H-CVRIRLNNRRRRVKVSLEVC-OH; disulfide 1-20; N-terminus and C-terminus assumed), the Ec W3110 MIC MH was 32 µg/mL, the Ec W3110 MIC RPMI is 8 µg/mL, the “W3110 MIC MH” value was determined as 32 µg/mL and the “W3110 MIC RPMI” value turned out to be 8 µg/mL.
As to `CC[C@H](C)[C@@H]1NC(=O)[C@H](CCCNC(=N)N)NC(=O)[C@H](C(C)C)NC(=O)[C@@H](N)CSSC[C@@H](C(=O)O)NC(=O)[C@H](C(C)C)NC(=O)[C@H](CCC(N)=O)NC(=O)[C@H](CC(C)C)NC(=O)[C@H](CO)NC(=O)[C@H](C(C)C)NC(=O)[C@H](CCCCN)NC(=O)[C@H](C(C)C)NC(=O)CNC(=O)[C@H](CO)NC(=O)[C@H](CCCNC(=N)N)NC(=O)[C@H](CCCNC(=N)N)NC(=O)[C@H](CC(N)=O)NC(=O)[C@H](CC(N)=O)NC(=O)[C@H](C(C)C)NC(=O)[C@H](CCCNC(=N)N)NC1=O` [SySA-38] (H-CVRIRVNNRRSGVKVSLQVC-OH; disulfide 1-20; N-terminus and C-terminus assumed), the Ec W3110 MIC MH is 256 µg/mL, the Ec W3110 MIC RPMI stood at 8 µg/mL, the “W3110 MIC MH” value came out at 256 µg/mL and the “W3110 MIC RPMI” value amounted to 8 µg/mL.
Regarding `CC[C@H](C)[C@@H]1NC(=O)[C@H](CCCNC(=N)N)NC(=O)[C@H](C(C)C)NC(=O)[C@@H](N)CSSC[C@@H](C(=O)O)NC(=O)[C@H](C(C)C)NC(=O)[C@H](CCC(N)=O)NC(=O)[C@H](CC(C)C)NC(=O)[C@H](CO)NC(=O)[C@H](C(C)C)NC(=O)[C@H](CCCCN)NC(=O)[C@H](CC(C)C)NC(=O)CNC(=O)[C@H](CCCNC(=N)N)NC(=O)[C@H](CCCNC(=N)N)NC(=O)[C@H](CCCNC(=N)N)NC(=O)[C@H](CC(N)=O)NC(=O)[C@H](CC(N)=O)NC(=O)[C@H](CC(C)C)NC(=O)[C@H](CCCNC(=N)N)NC1=O` [SySA-40] (H-CVRIRLNNRRRGLKVSLQVC-OH; disulfide 1-20; N-terminus and C-terminus assumed), the Ec W3110 MIC MH amounted to 32 µg/mL, the Ec W3110 MIC RPMI is 8 µg/mL, the “W3110 MIC MH” value worked out at 32 µg/mL and the “W3110 MIC RPMI” value is 8 µg/mL.
Turning to `CC(C)C[C@@H]1NC(=O)CNC(=O)[C@H](CCCNC(=N)N)NC(=O)[C@H](CCCNC(=N)N)NC(=O)[C@H](CCCNC(=N)N)NC(=O)[C@H](CC(N)=O)NC(=O)[C@H](CC(N)=O)NC(=O)[C@H](CC(C)C)NC(=O)[C@H](CCCNC(=N)N)NC(=O)[C@H](C(C)C)NC(=O)[C@H](CCCNC(=N)N)NC(=O)[C@H](C(C)C)NC(=O)[C@@H](N)CSSC[C@@H](C(=O)O)NC(=O)[C@H](C(C)C)NC(=O)[C@H](CCC(N)=O)NC(=O)[C@H](CC(C)C)NC(=O)[C@H]([C@@H](C)O)NC(=O)[C@H](C(C)C)NC(=O)[C@H](CCCCN)NC1=O` [SySA-45] (H-CVRVRLNNRRRGLKVTLQVC-OH; disulfide 1-20; N-terminus and C-terminus assumed), the Ec W3110 MIC MH worked out at 256 µg/mL, the Ec W3110 MIC RPMI was found to be 32 µg/mL, the “W3110 MIC MH” value was determined as 256 µg/mL and the “W3110 MIC RPMI” value came out at 32 µg/mL.
